Data set [1] can be described thus: Phase I clinical study Part 1, single administration, pharmacokinetics and safety. In kind it is in vivo, human. The conditions noted are these: human, plasma, oral; in any dose group, single administration. The procedure: Test Example 3-1 Phase I Clinical Study
All studies were conducted based on Good Clinical Practice (GCP). The phase I clinical study was composed of Part 1 to Part 7, and in Part 1, the safety, tolerability, and pharmacokinetics were confirmed when the fumaric acid cocrystal Form I crystal of the compound represented by Formula (I) was administered once and when it was administered repeatedly.
The subjects who were determined to be eligible by the screening examination were randomly assigned to either the active drug group (see the following table for the dose of the fumaric acid cocrystal Form I crystal of the compound represented by Formula (I)) or the placebo group on the day before the day of administration of the investigational new drug (Day −1). On Day 1, the investigational new drug (active drug or placebo) was administered once in the fasted state.

For data set [2] the following is noted: single ascending dose study in healthy Japanese adults; cited from earlier work.

As usually defined, the half-life is the time needed for the level to fall by half in the phase considered. Lower therefore signals rapid decline.

`Cn1cnc(Cn2c(=O)[nH]/c(=N\c3cc4cn(C)nc4cc3Cl)n(Cc3cc(F)c(F)cc3F)c2=O)n1` [compound represented by Formula (I), (6E)-6-[(6-chloro-2-methyl-2H-indazol-5-yl)imino]-3-[(1-methyl-1H-1,2,4-triazol-3-yl)methyl]-1-[(2,4,5-trifluorophenyl)methyl]-1,3,5-triazinane-2,4-dione] had a half-life in data set [1] greater than 40 h. In addition, the Safety and tolerability entry in data set [2] is “good safety and tolerability were confirmed”.
